Read-outs that look alike come from different tables or passages of the source.

The values that follow come from patent US11788147B2, “Markers of triple-negative breast cancer and uses thereof” (Vanderbilt University, priority 2011, dated 2023).

Experiment [1] concerns mesenchymal-like (M and MSL) TNBC cell lines. Briefly: Cell proliferation/viability assay (alamarBlue) and IC50 determination. The format is cell-based, human. Conditions: Homo sapiens; mesenchymal-like cell lines, 72 hours. As for the experimental part:
(§1) Cell proliferation/viability assays and IC50 determinations. All cell lines and culture conditions used can be found in Supplemental Methods (Table 5). Short tandem repeat (STR) DNA fingerprinting analysis was performed on all TNBC cell lines used in this study (Cell Line Genetics). […] Breast cancer cell lines and HMECs were seeded (3,000-10,000 cells) in quadruplicate wells in 96-well plates. […] Viability was determined from measuring fluorescent intensity after metabolic reduction of alamarBlue in the presence/absence of the drug after 72 hours. Viability assays were performed in triplicate, and replicates were normalized to untreated wells. […] For analysis of cell-line drug assays, data generated from the different cell lines representative of TNBC subtypes were compared using the nonparametric Mann-Whitney U test. All analyses and graphic representations were performed using Prism software (version 4.0c; GraphPad Software), and values are represented as the mean±SEM.
A general note: The colour change of resazurin is a common sign of viable cells or microbes.

The test system of another experiment is LAR TNBC cell lines. The description is as above. The format is cell-based, human. Conditions: 72 hours. Here is the method:
(§2) Cell proliferation/viability assays and IC50 determinations. All cell lines and culture conditions used can be found in Supplemental Methods (Table 5). Short tandem repeat (STR) DNA fingerprinting analysis was performed on all TNBC cell lines used in this study (Cell Line Genetics). […] Breast cancer cell lines and HMECs were seeded (3,000-10,000 cells) in quadruplicate wells in 96-well plates. […] Medium was then replaced with either fresh medium (control) or medium containing half-log serial dilutions of the following drugs: 0.3-30 μM olaparib (ChemieTek), 0.3-30 μM veliparib (ChemieTek), 1-100 μM bicalutamide (IPR Pharmaceutical), 0.3-30 μM cisplatin (APP Pharmaceutical), 3-300 nM NVP-BEZ235 (Chemdea), 10-1000 nM 17-DMAG (ChemieTek), and 0.1-10 μM dasatinib (LC Laboratories). Viability was determined from measuring fluorescent intensity after metabolic reduction of alamarBlue in the presence/absence of the drug after 72 hours. Viability assays were performed in triplicate, and replicates were normalized to untreated wells. […] For analysis of cell-line drug assays, data generated from the different cell lines representative of TNBC subtypes were compared using the nonparametric Mann-Whitney U test. All analyses and graphic representations were performed using Prism software (version 4.0c; GraphPad Software), and values are represented as the mean±SEM.

Experiment [2] relates to basal-like (BL1 and BL2) TNBC cell lines. Described as above. The format is cell-based, human. Conditions: read-out: average IC50. As for the experimental part: as §2
A further experiment has as its system TNBC cell lines. As to the kind of experiment: Cell proliferation/viability assay (alamarBlue), panel of TNBC cell lines (Example 1). It counts as cell-based, human. Particulars: TNBC cell lines with activated PI3K/AKT signaling due to PIK3CA mutations or PTEN deficiency. Here is the method: as §1
The subject of experiment [3] is SUM185PE, CAL-148, CAL-51 and SUM159PT xenograft tumors. Briefly: Xenograft tumor studies (Example 1), PIK3CA-mutant lines. It counts as in vivo, mice. Particulars: NVP-BEZ235 per oral 50 mg/kg/d, approximately 3 weeks.
Protocol: Xenograft tumor studies. Five-week-old female athymic nude-Foxnlnu mice (Harlan Sprague-Dawley) were injected (s.c.) with either approximately 5×10^6 (CAL-51, HCC1806, MDA-MB-468, and SUM185PE) or approximately 10×10^6 (CAL-148 and SUM159PT) cells suspended in medium (200 μl) into each flank using a 22-gauge needle. […] Once tumors reached a volume of 25-50 mm^3, mice were randomly allocated to treatment or vehicle arms. Treatments included bicalutamide per oral (100 mg/kg/d), cisplatin i.p. (8 mg/kg/wk), or NVP-BEZ235 per oral (50 mg/kg/d) in 1:9 N-methylpyrolidone: PEG300. Tumor diameters were serially measured at the indicated times with digital calipers, and tumor volumes were calculated as width^2×length/2. Data points reflect the means and SEM for 16 tumors per treatment.
Experiment [4] has as its system CAL-148 and MDA-MB-453 xenograft tumors. As to the kind of experiment: Xenograft tumor studies (Example 2). It counts as in vivo, mice. Conditions: single agent alone; bicalutamide 100 mg/kg/d, GDC0980 7.5 mg/kg/d, NVP-BEZ235 50 mg/kg/d p.o. Here is the method: Five-week-old female athymic nude-Foxnlnu mice (Harlan Sprague-Dawley) were injected (s.c.) with either ˜4×10^6 (CAL-148) or ˜10×10^6 (MDA-MB-453) cells suspended in media (200 μL) into each flank using a 22-gauge needle. Once tumors reached a volume of 25-50 mm^3, mice were randomly allocated to treatment or vehicle arms. Treatments included bicalutamide p.o. (100 mg/kg/d), GDC0980 p.o. (7.5 mg/kg/d) in 5% DMSO, 0.5% carboxymethyl cellulose (MCT) or NVP-BEZ235 p.o. (50 mg/kg/d) in 0.5% MCT or the combination of bicalutamide and either GDC-0980 or NVP-BEZ235 according to the above concentrations. Tumor diameters were serially measured at the indicated times with digital calipers and tumor volumes were calculated as width^2×length/2.

Experiment [5] has as its system HCC1806 and MDA-MB-468 xenograft tumors. As to the kind of experiment: Xenograft tumor studies (Example 1), basal-like. It counts as in vivo, mice. Conditions: cisplatin i.p. 8 mg/kg/wk, approximately 3 weeks, relative to vehicle control; P<0.0001. As for the experimental part: Xenograft tumor studies. Five-week-old female athymic nude-Foxnlnu mice (Harlan Sprague-Dawley) were injected (s.c.) with either approximately 5×10^6 (CAL-51, HCC1806, MDA-MB-468, and SUM185PE) or approximately 10×10^6 (CAL-148 and SUM159PT) cells suspended in medium (200 μl) into each flank using a 22-gauge needle. The protocols describing the process of xenograft tumor formation in athymic mice were reviewed and approved by the Vanderbilt Institutional Review Board. Once tumors reached a volume of 25-50 mm^3, mice were randomly allocated to treatment or vehicle arms. Treatments included bicalutamide per oral (100 mg/kg/d), cisplatin i.p. (8 mg/kg/wk), or NVP-BEZ235 per oral (50 mg/kg/d) in 1:9 N-methylpyrolidone: PEG300. Tumor diameters were serially measured at the indicated times with digital calipers, and tumor volumes were calculated as width^2×length/2. Data points reflect the means and SEM for 16 tumors per treatment.

For experiment [6], the system named is heterogeneous TNBC patient population. Particulars: neoadjuvant, single agent; cited from earlier work.

For the compound `Cn1c(=O)n(-c2ccc(C(C)(C)C#N)cc2)c2c3cc(-c4cnc5ccccc5c4)ccc3ncc21` [NVP-BEZ235], the IC50 (as a rule, the midpoint of a concentration-inhibition curve) in experiment [1] came to 0.044 µM; with LAR TNBC cell lines (Homo sapiens, LAR cell lines), 0.037 µM; in experiment [2] (72 hours) it was 0.116 µM; in experiment [2] (Homo sapiens, 72 h), 0.201 µM. Further, the “sensitivity (viability)” value in the experiment on TNBC cell lines is given as “highly sensitive”. Further, the xenograft tumor response entry in experiment [3] is given as “partial response or complete”. For the same compound, the tumor growth result in experiment [4] was “significantly decreased tumor growth”.

In the experiment with LAR TNBC cell lines (LAR lines), `N.N.[Cl][Pt][Cl]` [cisplatin] came in with an IC50 of 15 µM. In experiment [5], the xenograft tumor growth result is recorded as “significantly growth inhibited”. Besides, the pCR in experiment [6] is 21%.
